For test [1], the target named is T1, EP3 receptor (Homo sapiens, UniProt P43115).
T1 construct: purchased Millipore HTS092M
T1 sequence (P43115 1-390): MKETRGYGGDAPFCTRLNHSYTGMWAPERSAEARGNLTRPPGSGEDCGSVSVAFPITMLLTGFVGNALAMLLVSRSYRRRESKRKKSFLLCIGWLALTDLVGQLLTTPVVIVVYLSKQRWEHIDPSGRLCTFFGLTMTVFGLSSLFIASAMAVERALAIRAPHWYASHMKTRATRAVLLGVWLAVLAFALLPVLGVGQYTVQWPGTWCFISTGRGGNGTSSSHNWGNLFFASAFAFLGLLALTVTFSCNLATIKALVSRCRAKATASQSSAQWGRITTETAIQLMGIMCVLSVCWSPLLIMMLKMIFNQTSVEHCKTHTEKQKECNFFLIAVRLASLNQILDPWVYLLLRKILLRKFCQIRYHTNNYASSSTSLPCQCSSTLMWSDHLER
As to the kind of experiment: [3H]-PGE2 binding assay (EP3 competition binding). Conditions: read-out: [3H]-PGE2 Binding Ki. The procedure, abridged:
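Scintillation-bead competition binding with EP3 membranes (2 μg/well), 2 nM [3H]-PGE2, 0.1% DMSO, in 50 mM Tris, 10 mM MgCl2, 1 mM EDTA, pH 7.4.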

Test [2] deals with T1, EP3 receptor. The test is described as follows: CHO cell cAMP assay (forskolin and sulprostone stimulated, HTRF). Format: cell-based. The following applies: CHO cells; sulprostone 700 nM (EC80) and FSK 2 μM (EC70), 37° C. for 30 minutes; read-out: CHO_cAMP IC50.

SMILES strings stand for the structures.

The Ki is a dissociation constant, usually derived from enzyme kinetics or from competition with a known ligand. By IC50 is commonly meant the concentration that gives 50% inhibition. As for `CCn1ncc2c(F)cc(-c3ccc(C(CN4CCN(S(C)(=O)=O)CC4)C(C)C)c(=O)[nH]3)cc21` (stereo not drawn) [Compound #109, 6-(1-ethyl-4-fluoro-1H-indazol-6-yl)-3-(3-methyl-1-(4-(methylsulfonyl)piperazin-1-yl)butan-2-yl)pyridin-2(1H)-one], the Ki in test [1] is 0.027 µM. In addition, the IC50 in test [2] worked out at 0.115 µM.

As to `CC(C)C1(c2ccc(-c3ccc4cccc(F)c4c3)[nH]c2=O)C(=O)Nc2nccn21` (stereo not drawn) [compound 155, 3-(6-(8-fluoronaphthalen-2-yl)-2-oxo-1,2-dihydropyridin-3-yl)-3-isopropyl-1H-imidazo[1,2-a]imidazol-2(3H)-one], the Ki in test [1] was 0.005 µM. In addition, the IC50 in test [2] was determined as 0.02 µM.

As to `CC(C)/C(Cc1ccc(-c2ccc3cccc(F)c3c2)[nH]c1=O)=C1/OC(=O)NC1=O` [Compound #306, (E)-5-(1-(6-(8-fluoronaphthalen-2-yl)-2-oxo-1,2-dihydropyridin-3-yl)-3-methylbutan-2-ylidene)oxazolidine-2,4-dione], in test [1], the Ki turned out to be 0.054 µM. Moreover, in test [2], the IC50 stood at 0.111 µM.

`CC(C)C(C(=O)NCCN(C)C)c1ccc(-c2ccc3scnc3c2)[nH]c1=O` (stereo not drawn) [compound 243, 2-(6-(benzo[d]thiazol-5-yl)-2-oxo-1,2-dihydropyridin-3-yl)-N-(2-(dimethylamino)ethyl)-3-methylbutanamide]: in test [1], the Ki worked out at 2.6 µM. The IC50 in test [2] was found to be 14 µM.

As to `CC(C)C(c1ccc(-c2ccc3cccc(F)c3c2)[nH]c1=O)n1cnnc1N` (stereo not drawn) [compound 160, 3-(1-(3-amino-4H-1,2,4-triazol-4-yl)-2-methylpropyl)-6-(8-fluoronaphthalen-2-yl)pyridin-2(1H)-one], the Ki in test [1] is 0.013 µM. The IC50 in test [2] was 0.044 µM.

Consider `CC(C)C(NS(=O)(=O)C1CCCCC1)c1ccc(-c2ccc3cccc(F)c3c2)[nH]c1=O` (stereo not drawn) [Compound #165, N-(1-(6-(8-fluoronaphthalen-2-yl)-2-oxo-1,2-dihydropyridin-3-yl)-2-methylpropyl)cyclohexanesulfonamide], for which the Ki in test [1] stood at 0.031 µM. For the same molecule, the IC50 in test [2] was 0.25 µM.

Turning to `CCN1CCOc2ccc(-c3ccc(C(C(C)C)N4CCSCC4)c(=O)[nH]3)cc21` (stereo not drawn) [Compound #164, 6-(4-ethyl-3,4-dihydro-2H-benzo[b][1,4]oxazin-6-yl)-3-(2-methyl-1-thiomorpholinopropyl)pyridin-2(1H)-one], the inhibitory constant (Ki) in test [1] worked out at 0.026 µM. Also, the IC50 in test [2] amounted to 0.485 µM.

For the molecule `CC1(c2ccc(-c3ccc4ccccc4c3)[nH]c2=O)CN/C(=N\O)N1` (stereo not drawn) [compound 288, 3-[(2E)-2-(hydroxyimino)-4-methylimidazolidin-4-yl]-6-(naphthalen-2-yl)-1,2-dihydropyridin-2-one], the Ki in test [1] was found to be 0.18 µM. The IC50 in test [2] is 0.656 µM.

For `CC(C)C(C(=O)NCCN(C)C)c1ccc(-c2ccc3ncsc3c2)[nH]c1=O` (stereo not drawn) [compound 246, 2-(6-(benzo[d]thiazol-6-yl)-2-oxo-1,2-dihydropyridin-3-yl)-N-(2-(dimethylamino)ethyl)-3-methylbutanamide], the Ki in test [1] is over 10 µM. The IC50 in test [2] worked out at 17 µM.

Regarding `CC1(c2ccc(-c3ccc4ccccc4c3)[nH]c2=O)CNS(=O)(=O)N1` (stereo not drawn) [compound 282, 3-(3-methyl-1,1-dioxido-1,2,5-thiadiazolidin-3-yl)-6-(naphthalen-2-yl)pyridin-2(1H)-one], the Ki in test [1] is 0.74 µM. Also, in test [2], the IC50 amounted to 0.9 µM.

For the molecule `CC(C)C(Cc1ccc(-c2ccc3cccc(F)c3c2)[nH]c1=O)c1nnc[nH]1` (stereo not drawn) [compound 309, 6-(8-Fluoronaphthalen-2-yl)-3-(3-methyl-2-(4H-1,2,4-triazol-3-yl)butyl)pyridin-2(1H)-one], in test [1], the Ki amounted to 0.012 µM. Besides, the IC50 in test [2] came to 0.066 µM.

Regarding `CC1(c2ccc(-c3ccc4ccccc4c3)[nH]c2=O)N=CNC1=O` (stereo not drawn) [compound 222, 3-(4-methyl-5-oxo-4,5-dihydro-1H-imidazol-4-yl)-6-(naphthalen-2-yl)-1,2-dihydropyridin-2-one], the Ki in test [1] was 0.327 µM. For the same molecule, the IC50 in test [2] amounted to 4.27 µM.

Regarding `CCn1ncc2c(F)cc(-c3ccc(C(CC)(CC)c4ccon4)c(=O)[nH]3)cc21` [Compound #29, 6-(1-ethyl-4-fluoro-1H-indazol-6-yl)-3-(3-(isoxazol-3-yl)pentan-3-yl)pyridin-2(1H)-one], the inhibition constant (Ki) in test [1] is 0.003 µM. Also, the IC50 in test [2] amounted to 0.009 µM.

For `CC(C)C1(c2ccc(-c3ccc4cccc(F)c4c3)[nH]c2=O)CNC(NC#N)=N1` (stereo not drawn) [compound 291, N-(4-(6-(8-fluoronaphthalen-2-yl)-2-oxo-1,2-dihydropyridin-3-yl)-4-isopropyl-4,5-dihydro-1H-imidazol-2-yl)cyanamide], the inhibition constant (Ki) in test [1] is 0.003 µM. The IC50 in test [2] was determined as 0.019 µM.

As for `CC(C)C(/C=C1\OC(=O)NC1=O)c1ccc(-c2cc(F)c3cnn(C4CCCC4)c3c2)[nH]c1=O` (stereo not drawn) [compound 124, (Z)-5-(2-(6-(1-cyclopentyl-4-fluoro-1H-indazol-6-yl)-2-oxo-1,2-dihydropyridin-3-yl)-3-methylbutylidene)oxazolidine-2,4-dione], the inhibition constant Ki in test [1] came out at 0.202 µM. In test [2], the IC50 is 19.2 µM.

In the case of `CC(C)S(=O)(=O)N1CCC(c2ccc(-c3ccc4ccccc4c3)[nH]c2=O)CC1` [compound 200, 3-(1-(isopropylsulfonyl)piperidin-4-yl)-6-(naphthalen-2-yl)pyridin-2(1H)-one], the Ki in test [1] is 0.038 µM. Also, the IC50 in test [2] was 1.25 µM.

As to `CCn1ncc2c(F)cc(-c3ccc(C(CN4CCS(=O)(=O)CC4)C(C)C)c(=O)[nH]3)cc21` (stereo not drawn) [Compound #133, 4-{2-[6-(1-ethyl-4-fluoroindazol-6-yl)-2-oxo-1H-pyridin-3-yl]-3-methylbutyl},4-thiomorpholine-1,1-dione], in test [1], the Ki was determined as 0.012 µM. Further, in test [2], the IC50 is 0.235 µM.

As to `CCn1ncc2c(F)cc(-c3ccc(C(CC)(CC)c4nnn[nH]4)c(=O)[nH]3)cc21` [Compound #3, 3-(3-(1H-tetrazol-5-yl)pentan-3-yl)-6-(1-ethyl-4-fluoro-1H-indazol-6-yl)pyridin-2(1H)-one], the inhibition constant Ki in test [1] is 0.017 µM. Besides, the IC50 in test [2] turned out to be 0.349 µM.

As to `CC(C)C(/C=C1\OC(=O)NC1=O)c1ccc(-c2ccc3c(c2)N(C)CCO3)[nH]c1=O` (stereo not drawn) [compound 108, (Z)-5-(3-methyl-2-(6-(4-methyl-3,4-dihydro-2H-benzo[b][1,4]oxazin-6-yl)-2-oxo-1,2-dihydropyridin-3-yl)butylidene)oxazolidine-2,4-dione], the Ki in test [1] was 0.171 µM. Also, the half-inhibitory concentration (IC50) in test [2] was 0.602 µM.

Regarding `CCn1ncc2c(F)cc(-c3ccc(C4(O)CCCN(S(=O)(=O)C(C)C)C4)c(=O)[nH]3)cc21` (stereo not drawn) [compound 295, 6-(1-ethyl-4-fluoro-1H-indazol-6-yl)-3-(3-hydroxy-1-(isopropylsulfonyl)piperidin-3-yl)pyridin-2(1H)-one], the Ki in test [1] turned out to be 0.002 µM. Besides, the IC50 in test [2] amounted to 0.079 µM.

As to `CCn1ncc2c(F)cc(-c3ccc(C(CC)(CC)c4nnco4)c(=O)[nH]3)cc21` [Compound #42, 3-(3-(1,3,4-oxadiazol-2-yl)pentan-3-yl)-6-(1-ethyl-4-fluoro-1H-indazol-6-yl)pyridin-2(1H)-one], the inhibitory constant (Ki) in test [1] is 0.009 µM. For the same molecule, the concentration for half-maximal inhibition (IC50) in test [2] was found to be 0.02 µM.

As for `CCN1CCOc2ccc(-c3ccc(C(CC)(CC)CC4OC(=O)NC4=O)c(=O)[nH]3)cc21` (stereo not drawn) [compound 44, 5-(2-ethyl-2-(6-(4-ethyl-3,4-dihydro-2H-benzo[b][1,4]oxazin-6-yl)-2-oxo-1,2-dihydropyridin-3-yl)butyl)oxazolidine-2,4-dione], the Ki in test [1] came out at 0.093 µM. The IC50 in test [2] worked out at 0.505 µM.

As for `CCn1ncc2c(F)cc(-c3ccc(C4CCN(S(=O)(=O)C(C)C)CC4)c(=O)[nH]3)cc21` [compound 198, 6-(1-ethyl-4-fluoro-1H-indazol-6-yl)-3-(1-(isopropylsulfonyl)piperidin-4-yl)pyridin-2(1H)-one], the inhibition constant Ki in test [1] amounted to 0.019 µM. In addition, in test [2], the IC50 amounted to 0.53 µM.

On to `CC(C)C(F)(C(=O)NS(C)(=O)=O)c1ccc(-c2ccc3ccccc3c2)[nH]c1=O` (stereo not drawn) [compound 224, 2-fluoro-3-methyl-N-(methylsulfonyl)-2-(6-(naphthalen-2-yl)-2-oxo-1,2-dihydropyridin-3-yl)butanamide], for which the Ki in test [1] was 1.29 µM. In test [2], the IC50 stood at 10.8 µM.

As to `CC(C)C(CC(=O)Nc1ncc[nH]1)c1ccc(-c2ccc3cccc(F)c3c2)[nH]c1=O` (stereo not drawn) [compound 261, 3-(6-(8-fluoronaphthalen-2-yl)-2-oxo-1,2-dihydropyridin-3-yl)-N-(1H-imidazol-2-yl)-4-methylpentanamide], the Ki in test [1] stood at 0.02 µM. For the same molecule, the IC50 in test [2] was determined as 0.024 µM.

Regarding `CCOC(=O)C(=C1CCCCC1)c1ccc(-c2ccc3ccccc3c2)[nH]c1=O` [compound 281, ethyl 2-cyclohexylidene-2-(6-(naphthalen-2-yl)-2-oxo-1,2-dihydropyridin-3-yl)acetate], the Ki in test [1] was 0.037 µM. The IC50 in test [2] worked out at 0.527 µM.

As for `CC(C)C(C(=O)NCCOCCOCCN(C)C)c1ccc(-c2ccc3cccc(F)c3c2)[nH]c1=O` (stereo not drawn) [compound 229, N-(2-(2-(2-(dimethylamino)ethoxy)ethoxy)ethyl)-2-(6-(8-fluoronaphthalen-2-yl)-2-oxo-1,2-dihydropyridin-3-yl)-3-methylbutanamide], the inhibition constant Ki in test [1] was found to be 0.012 µM. The IC50 in test [2] was 0.142 µM.

The values are drawn from US10336701B2, “Pyridin-2-one derivatives of formula (II) useful as EP3 receptor antagonists” (Janssen Pharmaceutica NV, priority 2017, dated 2019).
